Assay results published in US7517840B2, “Optimized perfumery for rinse-off products” (Givaudan Fragrances Corporation, priority 2005, dated 2009).
Where “and” joins values, the source holds several entries; their conditions need not be identical. Identical values can stand only once. Like-named read-outs stand apart in the source and are kept apart here.

How the values were obtained:
[1] = GC-MS headspace release profile of perfume in shampoo, 1/100 dilution in water; assay type: physicochemical; details: Tropical Fruit Perfume
Experimental: Experimental Procedure: Individual odorant to be tested was added to 20 g of shampoo formulation (see formula below in Table 4) at 0.1%.
A 10 gram sample of formulation and fragrance was added to an empty 1000 ml pyrex beaker. This beaker was then filled with 1000 ml of 120 F tap water. Beaker with diluted shampoo sample was then immediately placed into a semi-enclosed plexiglass chamber.
Headspace Sampling: Once beaker was placed into chamber a Carboxan SPME field fiber was held at the top-side opening of the chamber over the beaker containing the sample. […] […] Top of plexiglass chamber was held open for entire 5 minutes of headspace sampling.

[2] = cited from earlier work; for exp ODT water: Booleans database; for Odor Detection Threshold: Table 24, Floral fragrance

CC=CC(=O)C1=C(C)C=CCC1(C)C [DAMASCENONE, 1-(2,6,6-Trimethylcyclohexa-1,3-dienyl)-2-buten-1-one]
GC Abundance ([1]; 50 seconds): 1000 | exp ODT water [2]: 0.002 ppb

Cc1ccc(C(C)C)c(O)c1 [5-Methyl-2-isopropylphenol]
exp ODT water [2]: 400 ppb

CC(=O)OC(C)(C)C1CC=C(C)CC1 (stereo not drawn) [TERPINYL ACETATE]
GC Abundance ([1]; 30 seconds): 1000 | GC Abundance ([1]; 40 seconds): 9000 | GC Abundance ([1]; 50 seconds): 9000

CC1(C)CCC[C@]2(C)[C@H]3CCO[C@]3(C)CC[C@@H]12 [AMBROXAN]
GC Abundance ([1]; 50 seconds): 1000

CCCCCC1CCC(=O)O1 (stereo not drawn) [ALDEHYDE C-18]
GC Abundance ([1]; 20 seconds): 2000 | GC Abundance ([1]; 30 seconds): 2000 | GC Abundance ([1]; 40 seconds): 4000 | GC Abundance ([1]; 50 seconds): 4000

O=C1CCCCCCCCCCCCCCO1 [EXALTOLIDE TOTAL]
GC Abundance ([1]; 50 seconds): 50

C/C=C/C(=O)C1=C(C)CCCC1(C)C [BETA DAMASCONE FAB, β-damascone]
Odor Detection Threshold [2]: 50 ppb or less | ODT ([2]; Table 30, berry note): 50 ppb or less

CC(=O)OCc1ccccc1 [BENZYL ACETATE]
GC Abundance ([1]; 20 seconds): 12000 | GC Abundance ([1]; 30 seconds): 17000 | GC Abundance ([1]; 40 seconds): 18000 | GC Abundance ([1]; 50 seconds): 18000

COc1cc(C=O)ccc1O [VANILLIN NF, 4-Hydroxy-3-methoxybenzaldehyde]
exp ODT water [2]: 25-58 ppb and 20-200 ppb

CCOC(=O)CC1(C)OCCO1 [FRUCTONE]
GC Abundance ([1]; 20 seconds): 3000 | GC Abundance ([1]; 30 seconds): 5000 | GC Abundance ([1]; 40 seconds): 5000 | GC Abundance ([1]; 50 seconds): 5000 | ODT ([2]; Table 17, apple note compounds): 50 ppb or less

VERTOFIX COEUR
GC Abundance ([1]; 50 seconds): 50

CC(=O)C=CC1=C(C)CCCC1(C)C [IONONE BETA PURE, 4-(2,6,6-Trimethyl-1-cyclohexen-1-yl)-3-buten-2-one]
GC Abundance ([1]; 30 seconds): 2000 | GC Abundance ([1]; 40 seconds): 10000 | GC Abundance ([1]; 50 seconds): 18000 | exp ODT water [2]: 4-6 ppb | Odor Detection Threshold [2]: 50 ppb or less

COC(=O)c1ccccc1N [METHYL AN[…], METHYL ANTHRANILATE]
Odor Detection Threshold [2]: 50 ppb or less

CCC(=O)OCc1ccccc1 [BENZYL PROPIONATE]
GC Abundance ([1]; 20 seconds): 2000 | GC Abundance ([1]; 30 seconds): 6000 | GC Abundance ([1]; 40 seconds): 6000 | GC Abundance ([1]; 50 seconds): 6000

CCCCCOC(=O)CCC [Pentyl butyrate]
exp ODT water [2]: 44-87 ppb

CC(=O)/C=C/C1C(C)=CCCC1(C)C (stereo not drawn) [IONONE ALPHA, alpha ionone]
exp ODT water [2]: 0.4-10 ppb

CCC(C)(O)CCC=C(C)C (stereo not drawn) [DIHYDROLINALOOL]
GC Abundance ([1]; 20 seconds): 3000 | GC Abundance ([1]; 30 seconds): 3000 | GC Abundance ([1]; 40 seconds): 3000 | GC Abundance ([1]; 50 seconds): 3000

CC/C(=C\CC1CC=C(C)C1(C)C)CO (stereo not drawn) [BACDANOL]
GC Abundance ([1]; 40 seconds): 100 | GC Abundance ([1]; 50 seconds): 5000

CC1=CC(C)C(C=O)CC1 (stereo not drawn) [TRIPLAL]
GC Abundance ([1]; 10 seconds): 1000 | GC Abundance ([1]; 20 seconds): 14000 | GC Abundance ([1]; 30 seconds): 14000 | GC Abundance ([1]; 40 seconds): 10000 | GC Abundance ([1]; 50 seconds): 6000

C/C=C/C(=O)C1C(C)C=CCC1(C)C (stereo not drawn) [δ-DAMASCONE]
ODT ([2]; Table 28, fig note): 50 ppb or less

CCOC(=O)C1OC1c1ccccc1 (stereo not drawn) [ETHYL PHENYL GLYCIDATE]
ODT ([2]; Table 30, berry note): 50 ppb or less

CC(C)c1cccc(C(C)CC=O)c1 (stereo not drawn) [FLORHYDRAL]
GC Abundance ([1]; 40 seconds): 9000 | GC Abundance ([1]; 50 seconds): 10000 | Odor Detection Threshold [2]: 50 ppb or less

CC(C)=CCCC(C)CCCC(C)C=O (stereo not drawn) [ADOXAL, 2,6,10-Trimethyl-9-undecenal]
GC Abundance ([1]; 40 seconds): 300 | GC Abundance ([1]; 50 seconds): 3000

CCC(=O)OC/C=C(\C)CCC=C(C)C [trans-3,7-Dimethyl-2,6-octadien-1-yl propanoate]
exp ODT water [2]: 10 ppb

CC/C=C\CCO [CIS-3-HEXEN-1-OL]
GC Abundance ([1]; 20 seconds): 14000 | GC Abundance ([1]; 30 seconds): 14000 | GC Abundance ([1]; 40 seconds): 14000 | GC Abundance ([1]; 50 seconds): 14000

CC=Cc1ccc(O)c(OC)c1 [1-Hydroxy-2-methoxy-4-propenylbenzene]
exp ODT water [2]: 30-40 ppb

CCOC(=O)C1OC1(C)c1ccccc1 (stereo not drawn) [Ethyl 2,3-epoxy-3-methyl-3-phenylpropionate]
exp ODT water [2]: 25 ppb

CCCCCCC1CCC(=O)O1 (stereo not drawn) [GAMMA-DECALACTONE, 5-Hexyldihydro-2(3H)-furanone]
GC Abundance ([1]; 40 seconds): 4000 | GC Abundance ([1]; 50 seconds): 7000

CC1OC(C)C2Cc3ccccc3C2O1 (stereo not drawn) [MAGNOLAN/CORPS 719]
GC Abundance ([1]; 40 seconds): 1000 | GC Abundance ([1]; 50 seconds): 3000

CC(C=O)Cc1ccc2c(c1)OCO2 (stereo not drawn) [HELIONAL]
GC Abundance ([1]; 40 seconds): 500 | GC Abundance ([1]; 50 seconds): 5000

CC/C=C\CCOC(=O)OC [LIFFAROME]
GC Abundance ([1]; 20 seconds): 3000 | GC Abundance ([1]; 30 seconds): 3000 | GC Abundance ([1]; 40 seconds): 3000 | GC Abundance ([1]; 50 seconds): 3000

CC(C)=CCCC(C)CCO (stereo not drawn) [CITRONELLOL AJ, FCC, CITRONELLOL]
GC Abundance ([1]; 20 seconds): 7000 | GC Abundance ([1]; 30 seconds): 7000 | GC Abundance ([1]; 40 seconds): 7000 | GC Abundance ([1]; 50 seconds): 7000

Cc1ccc2c(c1)OCC(=O)CO2 [CALONE]
GC Abundance ([1]; 50 seconds): 1000

CC1=C(O)C(=O)C(C)O1 (stereo not drawn) [STRAWBERRY FURANONE]
ODT ([2]; Table 30, berry note): 50 ppb or less

COC(=O)c1c(C)cc(O)c(C)c1O [METHYL ATRATATE]
GC Abundance ([1]; 50 seconds): 50

CC(=O)OC1CC2CC1C1CC=CC21 (stereo not drawn)
Odor Detection Threshold [2]: 50 ppb or less

C=CCOC(=O)CCC1CCCCC1 [ALLYL CYCLOHEXYL PROPIONATE]
GC Abundance ([1]; 40 seconds): 7000 | GC Abundance ([1]; 50 seconds): 10000

CCCCOC(C)=O [Butyl acetate]
exp ODT water [2]: 44-88 ppb

O=C1CCCCCCCCCCCC(=O)OCCO1 [ETHYLENE BRASSYLATE]
GC Abundance ([1]; 50 seconds): 20

CCCCCCC(C=O)=Cc1ccccc1 [HEXYL CINNAMIC ALDEHYDE, hexyl cinnamic aldehyde]
GC Abundance ([1]; 40 seconds): 2000 | GC Abundance ([1]; 50 seconds): 9000

C=C(C)C1CC=C(C)C(=O)C1 (stereo not drawn) [I-1-Methyl-4-isopropenyl-6-cyclohexen-2-one]
exp ODT water [2]: 50 ppb

C=CCOC(=O)CCCCCC [ALLYL HEPTOATE]
GC Abundance ([1]; 20 seconds): 4000 | GC Abundance ([1]; 30 seconds): 10000 | GC Abundance ([1]; 40 seconds): 12000 | GC Abundance ([1]; 50 seconds): 12000

CC/C=C\CCOC(C)=O [CIS-3-HEXENYL ACETATE]
GC Abundance ([1]; 20 seconds): 5000 | GC Abundance ([1]; 30 seconds): 14000 | GC Abundance ([1]; 40 seconds): 14000 | GC Abundance ([1]; 50 seconds): 14000

CC(=O)OC1CCC(C(C)(C)C)CC1 (stereo not drawn) [VERTENEX HC]
GC Abundance ([1]; 30 seconds): 2000 | GC Abundance ([1]; 40 seconds): 8000 | GC Abundance ([1]; 50 seconds): 10000

OCc1ccccc1 [BENZYL ALCOHOL]
GC Abundance ([1]; 40 seconds): 50 | GC Abundance ([1]; 50 seconds): 100

CC(C)CC1CC(C)(O)CCO1 (stereo not drawn) [FLOROL]
GC Abundance ([1]; 40 seconds): 10000 | GC Abundance ([1]; 50 seconds): 15000

CC(C)=CCCC(C)C=O (stereo not drawn) [MELONAL, 2,6-Dimethyl-5-heptenal]
exp ODT water [2]: 16 ppb | ODT ([2]; Table 26, cucumber-melon note): 50 ppb or less | odor detection threshold values in water [2]: 16 ppb

CC(=O)OC(C)(C)Cc1ccccc1 [DIMETHYL BENZYL CARBINYL ACETATE]
GC Abundance ([1]; 30 seconds): 2000 | GC Abundance ([1]; 40 seconds): 8000 | GC Abundance ([1]; 50 seconds): 8000

CC1=CCC(CCC(C)C(C)O)C1(C)C (stereo not drawn) [SANDALORE]
GC Abundance ([1]; 50 seconds): 2000

CCC=C(C)C(O)CCCCC (stereo not drawn) [UNDECAVERTOL, 4-Methyl-3-decen-5-ol]
GC Abundance ([1]; 40 seconds): 10000 | GC Abundance ([1]; 50 seconds): 10000

C=CC(C)CCCC(C)(C)O (stereo not drawn) [DIHYDROMYRCENOL]
GC Abundance ([1]; 10 seconds): 500 | GC Abundance ([1]; 20 seconds): 15000 | GC Abundance ([1]; 30 seconds): 15000 | GC Abundance ([1]; 40 seconds): 15000 | GC Abundance ([1]; 50 seconds): 15000

CCCCCCCC=O [1-Octanal]
exp ODT water [2]: 30 ppb

CCCCCCCCCC=CC=O [MANDARIN ALDEHYDE]
ODT ([2]; Table 32, citrus note): 50 ppb or less

C=CC(C)(O)CCC=C(C)CC (mixture of isomers) [ETHYL LINALOOL]
GC Abundance ([1]; 20 seconds): 5000 | GC Abundance ([1]; 30 seconds): 10000 | GC Abundance ([1]; 40 seconds): 10000 | GC Abundance ([1]; 50 seconds): 10000

CCCCCOC(C)=O [Pentyl Acetate]
exp ODT water [2]: 43 ppb
